In patent publication US20080051457A1, “Optically Active Phthalamide Derivative, Agricultural or Horticultural Insecticide, and Method of Using the Same” (priority 2004, published 2008):

test: logP (pH2.3), physical properties of Tables 1 to 3; assay type: physicochemical; conditions: not given
From the text: However, the present invention is not limited to these compounds. In the tables, the term “physical properties” means a melting point or logp. The symbol “Me” represents a methyl group, “Et” represents an ethyl group, “Pr” represents a propyl group, “-n” represents normal, and “-i” represents iso.

SMILES	Physical properties logP(pH2.3)
CSC[C@H](CC(C)C)NC(=O)c1c(Br)cccc1C(=O)Nc1ccc(C(F)(C(F)(F)F)C(F)(F)F)cc1C [Compound 1-360]	5.16
CC[C@@H](CSC)NC(=O)c1c(Cl)cccc1C(=O)Nc1ccc(C(F)(C(F)(F)F)C(F)(F)F)cc1C [Compound 1-339]	4.47
CC[C@@H](C[S+](C)[O-])NC(=O)c1c(I)cccc1C(=O)Nc1ccc(C(F)(C(F)(F)F)C(F)(F)F)cc1C (some centres unmarked) [Compound 1-346]	2.90
Cc1cc(C(F)(C(F)(F)F)C(F)(F)F)ccc1NC(=O)c1cccc(Cl)c1C(=O)N[C@H](CS(C)(=O)=O)C(C)C [Compound 1-350]	3.54
CSC[C@@H](NC(=O)c1c(Br)cccc1C(=O)Nc1ccc(C(F)(C(F)(F)F)C(F)(F)F)cc1C)C(C)C [Compound 1-351]	4.80
CC[C@@H](CSC)NC(=O)c1c(I)cccc1C(=O)Nc1ccc(C(F)(C(F)(F)F)C(F)(F)F)cc1C [Compound 1-345]	4.62
CSC[C@@H](NC(=O)c1c(I)cccc1C(=O)Nc1ccc(C(F)(C(F)(F)F)C(F)(F)F)cc1C)C(C)C [Compound 1-354]	4.97
CC[C@@H](CS(C)(=O)=O)NC(=O)c1c(Br)cccc1C(=O)Nc1ccc(C(F)(C(F)(F)F)C(F)(F)F)cc1C [Compound 1-344]	3.37
CC[C@@H](CS(C)(=O)=O)NC(=O)c1c(I)cccc1C(=O)Nc1ccc(C(F)(C(F)(F)F)C(F)(F)F)cc1C [Compound 1-347]	3.45
CSC[C@H](CC(C)C)NC(=O)c1c(I)cccc1C(=O)Nc1ccc(C(F)(C(F)(F)F)C(F)(F)F)cc1C [Compound 1-363]	5.24
Cc1cc(C(F)(C(F)(F)F)C(F)(F)F)ccc1NC(=O)c1cccc(I)c1C(=O)N[C@H](CS(C)(=O)=O)C(C)C [Compound 1-356]	3.70
Cc1cc(C(F)(C(F)(F)F)C(F)(F)F)ccc1NC(=O)c1cccc(Cl)c1C(=O)N[C@@H](CC(C)C)C[S+](C)[O-] (some centres unmarked) [Compound 1-358]	3.27
Cc1cc(C(F)(C(F)(F)F)C(F)(F)F)ccc1NC(=O)c1cccc(Br)c1C(=O)N[C@@H](CC(C)C)CS(C)(=O)=O [Compound 1-362]	3.82
CSC[C@@H](NC(=O)c1c(Cl)cccc1C(=O)Nc1ccc(C(F)(C(F)(F)F)C(F)(F)F)cc1C)C(C)C [Compound 1-348]	4.77
Cc1cc(C(F)(C(F)(F)F)C(F)(F)F)ccc1NC(=O)c1cccc(Br)c1C(=O)N[C@H](CS(C)(=O)=O)C(C)C [Compound 1-353]	3.62

same assay, conditions: Table 1

SMILES	Physical properties: logP
CCSC[C@H](C)NC(=O)c1c(I)cccc1C(=O)Nc1cc(F)c(OC(F)(F)F)cc1Cl [Compound 1-117]	4.26
Cc1c(NC(=O)c2cccc(I)c2C(=O)N[C@@H](C)CS(C)(=O)=O)ccc(I)c1F [Compound 1-152]	2.40
CCS(=O)(=O)C[C@H](C)NC(=O)c1c(I)cccc1C(=O)Nc1ccc(C(F)(F)F)c(F)c1C [Compound 1-128]	2.74
Cc1c(NC(=O)c2cccc(I)c2C(=O)N[C@@H](C)C[S+](C)[O-])ccc(C(F)(C(F)(F)F)C(F)(F)F)c1F (some centres unmarked) [Compound 1-142]	2.78
CCSC[C@H](C)NC(=O)c1c(Br)cccc1C(=O)Nc1ccc(Br)c(Br)c1C [Compound 1-186]	3.78
CSC[C@H](C)NC(=O)c1c(I)cccc1C(=O)Nc1ccc(I)c(F)c1C [Compound 1-150]	3.42
Cc1c(NC(=O)c2cccc(I)c2C(=O)N[C@@H](C)CS(C)(=O)=O)ccc(C(F)(C(F)(F)F)C(F)(F)F)c1F [Compound 1-143]	3.27
CC[S+]([O-])C[C@H](C)NC(=O)c1c(I)cccc1C(=O)Nc1ccc(C(F)(C(F)(F)F)C(F)(F)F)c(F)c1C (some centres unmarked) [Compound 1-106]	2.97
CCS(=O)(=O)C[C@H](C)NC(=O)c1c(I)cccc1C(=O)Nc1ccc(I)c(F)c1C [Compound 1-134]	2.59
CCS(=O)(=O)C[C@H](C)NC(=O)c1c(Br)cccc1C(=O)Nc1ccc(C(F)(F)C(F)(F)F)c(F)c1C [Compound 1-173]	3.06
CC[S+]([O-])C[C@H](C)NC(=O)c1c(Br)cccc1C(=O)Nc1ccc(C(F)(C(F)(F)F)C(F)(F)F)c(F)c1C (some centres unmarked) [Compound 1-199]	2.90
Cc1c(NC(=O)c2cccc(Cl)c2C(=O)N[C@@H](C)CS(C)(=O)=O)ccc(C(F)(F)C(F)(F)F)c1F [Compound 1-215]	2.82
CCS(=O)(=O)C[C@H](C)NC(=O)c1c(Br)cccc1C(=O)Nc1ccc(C(F)(F)F)c(F)c1C [Compound 1-182]	2.66
CCSC[C@H](C)NC(=O)c1c(Br)cccc1C(=O)Nc1ccc(Br)c(F)c1C [Compound 1-177]	3.54
Cc1c(NC(=O)c2cccc(Br)c2C(=O)N[C@@H](C)CS(C)(=O)=O)ccc(C(F)(C(F)(F)F)C(F)(F)F)c1F [Compound 1-170]	3.21
CCS(=O)(=O)C[C@H](C)NC(=O)c1c(Br)cccc1C(=O)Nc1ccc(C(F)(F)C(F)(F)F)c(Cl)c1C [Compound 1-176]	3.19
CCSC[C@H](C)NC(=O)c1c(Br)cccc1C(=O)Nc1cc(F)c(OC(F)(F)F)cc1Br [Compound 1-195]	4.18
Cc1c(NC(=O)c2cccc(I)c2C(=O)N[C@@H](C)CS(C)(=O)=O)ccc(OC(F)(F)F)c1F [Compound 1-140]	2.60
CSC[C@H](C)NC(=O)c1c(I)cccc1C(=O)Nc1ccc(C(F)(F)C(F)(F)F)c(Cl)c1C [Compound 1-144]	4.20
CCSC[C@H](C)NC(=O)c1c(Cl)cccc1C(=O)Nc1ccc(C(F)(F)C(F)(F)F)c(Cl)c1C [Compound 1-210]	4.37
CSC[C@H](C)NC(=O)c1c(Cl)cccc1C(=O)Nc1ccc(C(F)(F)C(F)(F)F)c(F)c1C [Compound 1-213]	3.88

SMILES	Physical properties: logP
CCSC[C@H](C)NC(=O)c1c(I)cccc1C(=O)Nc1ccc(OC(F)(F)F)c(F)c1C [Compound 1-123]	3.90
CCSC[C@H](C)NC(=O)c1c(I)cccc1C(=O)Nc1cc(F)c(OC(F)(F)F)cc1Br [Compound 1-114]	4.28
CC[S+]([O-])C[C@H](C)NC(=O)c1c(Br)cccc1C(=O)Nc1ccc(C(F)(F)C(F)(F)F)c(F)c1C (some centres unmarked) [Compound 1-172]	2.59
CSC[C@H](C)NC(=O)c1c(I)cccc1C(=O)Nc1ccc(Br)c(F)c1C [Compound 1-147]	3.30
CCc1cc(C(F)(C(F)(F)F)C(F)(F)F)ccc1NC(=O)c1cccc(Cl)c1C(=O)N[C@@H](C)CS(C)(=O)=O [Compound 1-218]	3.26
CCSC[C@H](C)NC(=O)c1c(I)cccc1C(=O)Nc1ccc(Br)c(Br)c1C [Compound 1-129]	3.89
CCS(=O)(=O)C[C@H](C)NC(=O)c1c(Cl)cccc1C(=O)Nc1ccc(C(F)(F)C(F)(F)F)c(Cl)c1C [Compound 1-212]	3.14
CCSC[C@H](C)NC(=O)c1c(I)cccc1C(=O)Nc1ccc(OC(F)(F)F)c(Cl)c1Cl [Compound 1-159]	4.41
CCSC[C@H](C)NC(=O)c1c(Br)cccc1C(=O)Nc1ccc(OC(F)(F)F)c(F)c1C [Compound 1-189]	3.81
CCS(=O)(=O)C[C@H](C)NC(=O)c1c(Cl)cccc1C(=O)Nc1ccc(C(F)(F)C(F)(F)F)c(F)c1C [Compound 1-209]	3.01
CSC[C@H](C)NC(=O)c1c(I)cccc1C(=O)Nc1ccc(C(F)(F)C(F)(F)F)c(F)c1C [Compound 1-135]	4.03
Cc1c(NC(=O)c2cccc(I)c2C(=O)N[C@@H](C)CS(C)(=O)=O)ccc(Br)c1Br [Compound 1-155]	2.49
CCS(=O)(=O)C[C@H](C)NC(=O)c1c(Br)cccc1C(=O)Nc1ccc(Br)c(Br)c1C [Compound 1-188]	2.59
CC[S+]([O-])C[C@H](C)NC(=O)c1c(Cl)cccc1C(=O)Nc1ccc(C(F)(F)C(F)(F)F)c(F)c1C (some centres unmarked) [Compound 1-208]	2.56
CCSC[C@H](C)NC(=O)c1c(I)cccc1C(=O)Nc1ccc(C(F)(F)F)c(F)c1C [Compound 1-126]	3.90
CCSC[C@H](C)NC(=O)c1c(Cl)cccc1C(=O)Nc1ccc(C(F)(F)C(F)(F)F)c(F)c1C [Compound 1-207]	4.21
CCS(=O)(=O)C[C@H](C)NC(=O)c1c(I)cccc1C(=O)Nc1ccc(OC(F)(F)F)c(F)c1C [Compound 1-125]	2.77
CCS(=O)(=O)C[C@H](C)NC(=O)c1c(I)cccc1C(=O)Nc1ccc(OC(F)(F)F)c(Cl)c1Cl [Compound 1-161]	3.18
CCc1cc(C(F)(C(F)(F)F)C(F)(F)F)ccc1NC(=O)c1cccc(Br)c1C(=O)N[C@@H](C)CS(C)(=O)=O [Compound 1-221]	3.31
CCSC[C@H](C)NC(=O)c1c(Cl)cccc1C(=O)Nc1ccc(C(F)(C(F)(F)F)C(F)(F)F)c(F)c1C [Compound 1-201]	4.54
